Test results: US10961202B2, “Bis-benzimidazole compounds and methods of using the same” (THE SCRIPPS RESEARCH INSTITUTE, priority 2017, dated 2021)
Read-outs that look alike come from different tables or passages of the source.

Legend:
r(CUG)12-MBNL1 complex = test: Inhibition of the r(CUG)12-MBNL1 complex measured by TR-FRET; assay type: biochemical; settings: 80 nM RNA, 60 nM MBNL1-His6
HSALR strain 20b mice [1] = test: DM1 mouse efficacy study: RT-PCR of MBNL1-dependent splicing targets in gastrocnemius; assay type: in vivo; settings: sc, 3 mg/kg qod 5 doses, subcutaneous
Excerpt: HSALR strain 20b mice were used as a model for myotonic dystrophy type I (DM1) experimental studies when testing the efficacy of candidate compounds. To determine the genotype of the mice, the transgene of human skeletal actin (HSA) genomic level was compared to endogenous mouse skeletal actin (MSA) by PCR. Mice with an HSA:MSA ratio of 2:1, homozygous mice were used for the study. Disease phenotype was confirmed in homozygous HSALR by assessing myotonia by pinching the quadriceps of the mouse. […] Homozygous HSALR that have been confirmed by PCR genotyping HSA:MSA ratio and are positive for pinch myotonia were selected for candidate compound efficacy studies for DM1.
For each study, a control group of PBS injected mice was included along with mice test groups injected with the compound to be tested. For a statistical power >80%, five mice were used per group (three females and two males). As previously indicated, homozygous HSALR mice were selected aged 8-12 weeks at the beginning of the study. Littermate mice were evenly distributed across groups in the study. Each cage contained mice from a single group. Female mice from different litters were combined into one cage for a single test group. Male mice cannot be combined in cages with non-littermate mice. If any fighting occurred in cages with multiple mice, the mice with minor/superficial fight wounds were be separated and monitored. Mice with severe fight wounds were removed from the study. Mice were monitored throughout the study for weight changes over time, behavioral changes at time of injection, and any other potential health concerns that arose during the study.
Mice were injected with approximately ˜200 μL solution subcutaneously by 28-gauge syringe. The volume administered was determined by the weight of the mouse where 10 iaL solution is administered per 1 g of the weight of the mouse. The compound was solubilized in DPBS at a concentration of […], which equated to a dose of 0.1-3.0 mg compound per kg weight of the animal (mpk). Mice were weighed once a week, and the volume of administered compound solution (or DPBS) was adjusted accordingly for correct mpk dosing. Once a compound was tested for acute toxicity in FVB wildtype mice, the compound was typically first tested at 3 mpk, injected every other day (q.o.d.) for five doses, and the mice sacrificed 24 hr after the last injection. Candidate compounds were further tested at different dose regimes to further assess the compound's efficacy in DM1 mice.
For each mouse, blood, brain, heart, liver, kidney, tibialis anterior, gastrocnemius, and quadriceps were dissected and collected. After the mouse was euthanized, blood was collected by cardiac puncture and placed in lithium heparin tubes on ice. Plasma was separated by centrifugation and collected. Brain, heart, half of the liver, tibialis anterior, gastrocnemius, and quadriceps were flash frozen in liquid nitrogen. Half of the liver, kidneys, and subset of heart samples were fixed in 10% formalin. One of the two tibialis anterior muscles was frozen with OCT for cyro-sectioning.
Gastrocnemius muscle was used for downstream RNA extraction RT-PCR. […] Half of one gastrocnemius was used for an RNA extraction. The gastrocnemius was homogenized in Trizol reagent and extracted following the protocol of the Zymo Direct-zol RNA Mini Prep Plus kit.
For each RNA sample, 500 ng of RNA was used for a reverse transcription reaction to produce single-stranded cDNA. MBNL1-dependent splicing targets (Clcn1 exon 7a, Mbnl1 exon 5, Sercal exon 22, and Zasp exon 11) and MBNL1-independent splicing targets (Capzb exon 8, Itgb1 exon 17) were assessed by RT-PCR. For the alternative exons listed, forward and reverse primers were designed to amplify the alternative exon along with the flanking constitutive exons such that one primer may produce two PCR products: one PCR product including the alternative exon and one PCR product excluding the alternative exon. […]

[2] = system: MBNL1 exon 5 inclusion in DM1 myotubes; test: Myotube splicing rescue assay (MBNL1 exon 5 inclusion); assay type: cell-based, human; settings: 48-hour incubation
HSALR strain 20b mice [3] = test: DM1 mouse efficacy study: RT-PCR of MBNL1-dependent splicing targets in gastrocnemius; assay type: in vivo; settings: sc, subcutaneous
[4] = read-out: Clcn1 exon 7a splicing rescue %
[5] = read-out: Mbnl1 exon 5 splicing rescue %
[6] = read-out: Serca1 exon 22 splicing rescue %
[7] = read-out: Zasp exon 11 splicing rescue %
[8] = 7.5 mg/kg qod 8 doses, read-out: Clcn1 exon 7a splicing rescue %
[9] = 7.5 mg/kg qod 8 doses, read-out: Mbnl1 exon 5 splicing rescue %
[10] = 7.5 mg/kg qod 8 doses, read-out: Serca1 exon 22 splicing rescue %
[11] = 7.5 mg/kg qod 8 doses, read-out: Zasp exon 11 splicing rescue %
[12] = 7.5 mg/kg qod 5 doses, read-out: Clcn1 exon 7a splicing rescue %
[13] = 7.5 mg/kg qod 5 doses, read-out: Mbnl1 exon 5 splicing rescue %
[14] = 7.5 mg/kg qod 5 doses, read-out: Serca1 exon 22 splicing rescue %
[15] = 7.5 mg/kg qod 5 doses, read-out: Zasp exon 11 splicing rescue %

Row | SMILES | IC50 (r(CUG)12-MBNL1 complex; Table M) | IC50 (r(CUG)12-MBNL1 complex; Table L) | percent splicing rescue at 3 mg/kg (HSALR strain 20b mice [1]; [4]) | percent splicing rescue at 3 mg/kg (HSALR strain 20b mice [1]; [5]) | percent splicing rescue at 3 mg/kg (HSALR strain 20b mice [1]; [6]) | percent splicing rescue at 3 mg/kg (HSALR strain 20b mice [1]; [7]) | MBNL1 % splicing rescue at 10 μM [2] | MBNL1 % splicing rescue at 1 μM [2] | other results
1 | c1cc2nc(-c3ccc(-c4nc5ccc(OCCCN6CCCCC6)cc5[nH]4)cc3)[nH]c2cc1OCCCN1CCCCC1 [Compound 214] | 25.2 µM | – | -31.6% | -17.3% | -5.1% | -12.1% | 119.3% | – | –
2 | CN(C)CCOc1ccc(-c2nc3cc(-c4ccc5[nH]c(-c6ccc(OCCN(C)C)cc6)nc5c4)ccc3[nH]2)cc1 [Compound 153] | – | 29 µM | – | – | – | – | 106.1% | 82.1% | percent splicing rescue at 7.5 mg/kg (HSALR strain 20b mice [3]; [8]): 48.4%; percent splicing rescue at 7.5 mg/kg (HSALR strain 20b mice [3]; [9]): 40.8%; percent splicing rescue at 7.5 mg/kg (HSALR strain 20b mice [3]; [10]): 34%; percent splicing rescue at 7.5 mg/kg (HSALR strain 20b mice [3]; [11]): 59.7%
3 | CN(C)CCCOc1ccc(-c2nc3cc(-c4ccc5[nH]c(-c6ccc(OCCCN(C)C)cc6)nc5c4)ccc3[nH]2)cc1 [Compound 152] | – | 10.7 µM | – | – | – | – | 79.8% | 85.4% | percent splicing rescue at 7.5 mg/kg (HSALR strain 20b mice [3]; [9]): 40.6%; percent splicing rescue at 7.5 mg/kg (HSALR strain 20b mice [3]; [10]): -19.8%; percent splicing rescue at 7.5 mg/kg (HSALR strain 20b mice [3]; [11]): 46.1%
4 | CN(C)CCCOc1cc2[nH]c(-c3ccc(-c4nc5cc(F)c(OCCCN(C)C)cc5[nH]4)cc3)nc2cc1F [Compound 277, (3-[[2-(4-[6-[3-(dimethylamino)propoxy]-5-fluoro-1H-1,3-benzodiazol-2-yl]phenyl)-5-fluoro-1H-1,3-benzodiazol-6-yl]oxy]propyl)dimethylamine; 2-hydroxypropane-1,2,3-tricarboxylic acid] | 8.29 µM | – | 30.3% | 19.9% | 13.2% | 24.2% | 51.0% | – | –
5 | CN(C)CCNC(=O)c1ccc(-c2nc3cc(-c4ccc5[nH]c(-c6ccc(C(=O)NCCN(C)C)cc6)nc5c4)ccc3[nH]2)cc1 [Compound 108, 4,4′-(1H,1′H-[5,5′-bibenzo[d]imidazole]-2,2′-diyl)bis(N-(2-(dimethylamino)ethyl)benzamide)] | – | 13 µM | – | – | – | – | 63.4% | 0.0% | percent splicing rescue at 30 mg/kg (HSALR strain 20b mice [3]; 30 mg/kg qod 8 doses, read-out: Clcn1 exon 7a splicing rescue %): 32.5%; percent splicing rescue at 30 mg/kg (HSALR strain 20b mice [3]; 30 mg/kg qod 8 doses, read-out: Mbnl1 exon 5 splicing rescue %): 57.4%; percent splicing rescue at 30 mg/kg (HSALR strain 20b mice [3]; 30 mg/kg qod 8 doses, read-out: Serca1 exon 22 splicing rescue %): 59.1%; percent splicing rescue at 30 mg/kg (HSALR strain 20b mice [3]; 30 mg/kg qod 8 doses, read-out: Zasp exon 11 splicing rescue %): 50.1%
6 | CN(C)CCOc1cccc(-c2nc3cc(-c4ccc5[nH]c(-c6cccc(OCCN(C)C)c6)nc5c4)ccc3[nH]2)c1 [Compound 354] | 16.5 µM | – | -14% | -0.1% | 0.1% | -0.1% | 64.2% | 66.0% | –

Further lines, with some results ahead:

Row | IC50 (r(CUG)12-MBNL1 complex; Table M) | IC50 (r(CUG)12-MBNL1 complex; Table L) | SMILES | percent splicing rescue at 3 mg/kg (HSALR strain 20b mice [1]; [4]) | percent splicing rescue at 3 mg/kg (HSALR strain 20b mice [1]; [5]) | percent splicing rescue at 3 mg/kg (HSALR strain 20b mice [1]; [6]) | percent splicing rescue at 3 mg/kg (HSALR strain 20b mice [1]; [7]) | MBNL1 % splicing rescue at 10 μM [2] | MBNL1 % splicing rescue at 1 μM [2] | other results
7 | 12 µM | – | CN(C)CCCOc1ccc2nc(-c3cnc(-c4nc5ccc(OCCCN(C)C)cc5[nH]4)cn3)[nH]c2c1 [Compound 274] | 31.6% | 25.2% | 10.7% | 29.8% | 65.3% | – | –
8 | – | 19.8 µM | CN(C)CCCOc1ccc2nc(-c3ccc(-c4nc5ccc(OCCCN(C)C)cc5[nH]4)cc3)[nH]c2c1 [Compound 58, 3,3′-((2,2′-(1,4-phenylene)bis(1H-benzo[d]imidazole-6,2-diyl))bis(oxy))bis(N,N-dimethylpropan-1-amine)] | – | – | – | – | 79.1% | 11.0% | percent splicing rescue at 7.5 mg/kg (HSALR strain 20b mice [3]; [8]): 68.3%; percent splicing rescue at 7.5 mg/kg (HSALR strain 20b mice [3]; [9]): 80.2%; percent splicing rescue at 7.5 mg/kg (HSALR strain 20b mice [3]; [10]): 90.5%; percent splicing rescue at 7.5 mg/kg (HSALR strain 20b mice [3]; [11]): 102%
9 | 14.2 µM | – | CN(C)CCCOc1ccc2nc(-c3ccc(-c4nc5ccc(OCCCN(C)C)cc5[nH]4)c(F)c3)[nH]c2c1 [Compound 286, (3-[[2-(4-[6-[3-(dimethylamino)propoxy]-1H-1,3-benzodiazol-2-yl]-3-fluorophenyl)-1H-1,3-benzodiazol-6-yl]oxy]propyl)dimethylamine] | 65.8% | 70.4% | 40.4% | 60% | 96.4% | – | –
10 | 9.67 µM | – | CN1CCC(COc2ccc3nc(-c4ccc(-c5nc6ccc(OCC7CCN(C)CC7)cc6[nH]5)cc4)[nH]c3c2)CC1 [Compound 198, 1,4-bis(6-((1-methylpiperidin-4-yl)methoxy)-1H-benzo[d]imidazol-2-yl)benzene] | 55.1% | 49.7% | 22.3% | 35% | 109.8% | – | percent splicing rescue at 7.5 mg/kg (HSALR strain 20b mice [3]; [12]): 90.4%; percent splicing rescue at 7.5 mg/kg (HSALR strain 20b mice [3]; [13]): 94.5%; percent splicing rescue at 7.5 mg/kg (HSALR strain 20b mice [3]; [14]): 61.2%; percent splicing rescue at 7.5 mg/kg (HSALR strain 20b mice [3]; [15]): 91.5%
11 | – | 40 µM | CN(C)CCCSc1ccc2nc(-c3ccc(-c4nc5ccc(SCCCN(C)C)cc5[nH]4)cc3)[nH]c2c1 [Compound 60, 3,3′-((2,2′-(1,4-phenylene)bis(1H-benzo[d]imidazole-6,2-diyl))bis(sulfanediyl))bis(N,N-dimethylpropan-1-amine)] | – | – | – | – | 80.9% | 18.9% | percent splicing rescue at 7.5 mg/kg (HSALR strain 20b mice [3]; [12]): 87.7%; percent splicing rescue at 7.5 mg/kg (HSALR strain 20b mice [3]; [13]): 95.3%; percent splicing rescue at 7.5 mg/kg (HSALR strain 20b mice [3]; [14]): 86%; percent splicing rescue at 7.5 mg/kg (HSALR strain 20b mice [3]; [15]): 88.3%
12 | – | 3.2 µM | Nc1ccc2nc(-c3ccc(-c4nc5ccc(NC6=NCCN6C6=NCCN6)cc5[nH]4)cc3)[nH]c2c1 [Compound 75, 2-(4-(6-amino-1H-benzo[d]imidazol-2-yl)phenyl)-N-(4,4′,5,5′-tetrahydro-1H-[1,2′-biimidazol]-2-yl)-1H-benzo[d]imidazol-6-amine] | – | – | – | – | 0.0% | – | percent splicing rescue at 30 mg/kg (HSALR strain 20b mice [3]; 30 mg/kg qd 7 doses, read-out: Clcn1 exon 7a splicing rescue %): 39.4%; percent splicing rescue at 30 mg/kg (HSALR strain 20b mice [3]; 30 mg/kg qd 7 doses, read-out: Mbnl1 exon 5 splicing rescue %): 93.9%; percent splicing rescue at 30 mg/kg (HSALR strain 20b mice [3]; 30 mg/kg qd 7 doses, read-out: Serca1 exon 22 splicing rescue %): 50%; percent splicing rescue at 30 mg/kg (HSALR strain 20b mice [3]; 30 mg/kg qd 7 doses, read-out: Zasp exon 11 splicing rescue %): 95.6%
